Results as given in ChEMBL document CHEMBL1201862, “PubChem BioAssay data set” (2004).
Activity calls are given as the source filed them.

Assays:
[1] = toxicity toward HepG2 liver cells – cell-based, plate reader, cherry-pick, antagonist series, cytotoxicity control, dose response (AID 743416); format: functional
[2] = viability loss in HEK293 cells – cell-based, plate reader, cherry-picked samples, cytotoxicity control, dose response (AID 743446); format: functional
[3] = blockade of melanocortin 4 receptor signaling – cell-based, plate reader, cherry pick, counter-screen for LGR2 antagonist project, dose response (AID 743444); format: functional;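 further: transfected HEK 293 cells stimulated with alpha-MSH peptide; potency of inhibitors of the alpha-MSH evoked signal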
[4] = A549 cell cytotoxicity, dose response, cytotoxicity control, plate reader, cherry-pick, antagonist series (AID 743412); format: functional, cell-based
[5] = blockers of bursicon-stimulated LGR2 cAMP reporter – cell-based, HEK293, CRE-luciferase reporter, cherry pick, set 2, dose response (AID 743343); format: functional;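 further: transfected cells were stimulated with diluted bursicon conditioned medium after compound addition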
[6] = Counterscreen for inhibitors of Trypanosoma brucei methionyl tRNA synthetase (MetRS): Luminescence-based cell-based high throughput dose response assay to identify compounds that are cytotoxic to Jurkat human T lymphocyte cells.; format: functional
[7] = viability of PTEN-deleted HCT116 cells – cell-based, HCT116 PTEN knockout, dose response (AID 1047); format: functional;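 further: HCT116 colon tumor cells with PTEN knocked out; cells exposed to compound for 60 hours before readout; potency for loss of cell viability measured by luminescence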
[8] = fluconazole-exposed Candida albicans growth modulators – fluorescence, retest, confirmation (AID 2467); format: functional, cell-based
Cytochrome P450 2C9 = Cytochrome P450 2C9 (Homo sapiens, UniProt P11712)
Cytochrome P450 2C9, sequence (P11712 whole entry): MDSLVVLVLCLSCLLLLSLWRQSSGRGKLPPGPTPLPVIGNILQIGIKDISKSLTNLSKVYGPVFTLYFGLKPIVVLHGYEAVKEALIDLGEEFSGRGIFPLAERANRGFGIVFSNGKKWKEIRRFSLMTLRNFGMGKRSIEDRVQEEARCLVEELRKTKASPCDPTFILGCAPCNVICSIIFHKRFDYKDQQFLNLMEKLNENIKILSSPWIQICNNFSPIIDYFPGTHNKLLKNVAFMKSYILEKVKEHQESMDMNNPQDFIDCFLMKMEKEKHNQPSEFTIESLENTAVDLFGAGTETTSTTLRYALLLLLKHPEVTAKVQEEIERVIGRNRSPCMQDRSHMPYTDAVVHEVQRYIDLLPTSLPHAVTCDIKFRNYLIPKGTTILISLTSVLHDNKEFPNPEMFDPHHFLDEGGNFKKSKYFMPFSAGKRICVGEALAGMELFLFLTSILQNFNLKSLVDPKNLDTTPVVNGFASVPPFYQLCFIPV

Cytochrome P450 3A4 = Cytochrome P450 3A4 (Homo sapiens, UniProt P08684);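 further: CYP3A4 tested as one member of a cytochrome P450 panel screen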
Cytochrome P450 3A4, sequence (P08684 whole entry): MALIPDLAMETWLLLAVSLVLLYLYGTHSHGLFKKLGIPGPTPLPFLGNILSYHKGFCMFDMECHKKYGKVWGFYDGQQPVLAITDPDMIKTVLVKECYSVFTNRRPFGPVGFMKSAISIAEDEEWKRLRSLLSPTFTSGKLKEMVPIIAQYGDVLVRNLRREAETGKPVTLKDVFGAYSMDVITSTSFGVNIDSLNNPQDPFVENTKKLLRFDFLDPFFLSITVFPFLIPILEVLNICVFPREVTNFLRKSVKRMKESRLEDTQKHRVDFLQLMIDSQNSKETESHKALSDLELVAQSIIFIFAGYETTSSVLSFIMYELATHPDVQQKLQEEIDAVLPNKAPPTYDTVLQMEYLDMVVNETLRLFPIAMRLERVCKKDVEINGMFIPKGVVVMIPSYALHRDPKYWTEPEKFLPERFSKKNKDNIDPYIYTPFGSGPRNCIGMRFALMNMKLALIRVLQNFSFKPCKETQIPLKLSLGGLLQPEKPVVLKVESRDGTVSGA

[9] = viability of HCT116 lacking mutant beta-catenin – cell-based, human colon tumor, dose response (AID 1045); format: functional;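 further: HCT116 colon tumor cells with beta catenin knocked out; cells exposed to compound for 60 hours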
[10] = biological target: T1, Rac GTPase-activating protein 1 (Homo sapiens, UniProt Q9H0H5); assay: blockers of MgcRacGAP-driven Rac1 GTP hydrolysis – biochemical, ADP Hunter fluorescence, primary and confirmatory, confirmation (AID 624330); format: functional
T1 sequence (Q9H0H5 whole entry): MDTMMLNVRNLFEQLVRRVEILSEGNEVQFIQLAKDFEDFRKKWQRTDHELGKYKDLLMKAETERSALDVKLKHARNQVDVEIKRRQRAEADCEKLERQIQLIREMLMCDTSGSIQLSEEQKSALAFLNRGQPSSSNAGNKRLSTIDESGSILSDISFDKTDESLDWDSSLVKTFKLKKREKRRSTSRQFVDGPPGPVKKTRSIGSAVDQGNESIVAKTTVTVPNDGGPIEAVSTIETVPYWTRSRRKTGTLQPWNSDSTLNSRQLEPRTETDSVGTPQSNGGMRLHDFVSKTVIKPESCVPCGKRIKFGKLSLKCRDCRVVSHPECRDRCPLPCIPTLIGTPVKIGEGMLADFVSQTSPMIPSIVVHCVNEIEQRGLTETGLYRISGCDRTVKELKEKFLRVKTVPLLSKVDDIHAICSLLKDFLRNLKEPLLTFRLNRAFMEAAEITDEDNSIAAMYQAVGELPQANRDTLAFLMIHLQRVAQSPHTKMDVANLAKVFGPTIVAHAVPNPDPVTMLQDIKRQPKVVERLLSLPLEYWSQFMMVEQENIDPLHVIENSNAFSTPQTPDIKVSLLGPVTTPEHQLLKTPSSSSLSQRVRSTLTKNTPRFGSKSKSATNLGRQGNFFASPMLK

[11] = NIH-3T3 fibroblast cytotoxicity, dose response, cytotoxicity control, cell-based, fluorescence, Alamar Blue, secondary assay (AID 2327); format: functional;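 further: NIH-3T3 mouse fibroblasts cultured with fluconazole at 8 µg/mL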
[12] = biological target: T2, Long-chain-fatty-acid--AMP ligase FadD28 (Mycobacterium tuberculosis, UniProt P9WQ59); assay: Fluorescence polarization aasay to screen for inhibitors that compete for the binding of FadD28 to a bisubstrate Measured in Biochemical System Using Plate Reader - 2147-01_Inhibitor_Dose_CherryPick_Activity.; format: functional, Mycobacterium tuberculosis H37Rv
T2 sequence (P9WQ59 whole entry): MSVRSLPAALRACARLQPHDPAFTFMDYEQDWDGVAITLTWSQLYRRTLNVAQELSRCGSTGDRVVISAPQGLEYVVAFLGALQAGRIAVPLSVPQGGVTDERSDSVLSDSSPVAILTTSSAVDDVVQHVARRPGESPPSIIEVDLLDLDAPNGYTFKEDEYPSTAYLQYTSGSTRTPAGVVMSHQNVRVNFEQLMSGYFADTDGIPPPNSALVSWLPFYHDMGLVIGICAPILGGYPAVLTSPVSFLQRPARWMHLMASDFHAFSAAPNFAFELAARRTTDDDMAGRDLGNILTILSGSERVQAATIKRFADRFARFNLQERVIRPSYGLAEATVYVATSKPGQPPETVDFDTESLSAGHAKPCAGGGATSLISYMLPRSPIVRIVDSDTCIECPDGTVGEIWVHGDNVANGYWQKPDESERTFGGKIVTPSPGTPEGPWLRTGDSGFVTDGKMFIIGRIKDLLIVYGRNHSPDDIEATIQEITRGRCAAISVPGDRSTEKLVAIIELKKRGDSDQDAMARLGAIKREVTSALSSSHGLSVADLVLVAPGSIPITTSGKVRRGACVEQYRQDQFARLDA

[13] = viability loss in HeLa cells – cytotoxicity control for MgcRacGAP inhibitor project, dose response (AID 624300); format: functional
[14] = biological target: T3, Corticotropin-releasing factor receptor 2/Corticotropin-releasing factor-binding protein (Homo sapiens, UniProt P24387+Q13324); assay: activators of CRF receptor 2 with binding protein – uHTS hits, confirmation (AID 602473); format: functional; conditions: read-out: EC50_Mean
T3 sequence (Q13324 whole entry): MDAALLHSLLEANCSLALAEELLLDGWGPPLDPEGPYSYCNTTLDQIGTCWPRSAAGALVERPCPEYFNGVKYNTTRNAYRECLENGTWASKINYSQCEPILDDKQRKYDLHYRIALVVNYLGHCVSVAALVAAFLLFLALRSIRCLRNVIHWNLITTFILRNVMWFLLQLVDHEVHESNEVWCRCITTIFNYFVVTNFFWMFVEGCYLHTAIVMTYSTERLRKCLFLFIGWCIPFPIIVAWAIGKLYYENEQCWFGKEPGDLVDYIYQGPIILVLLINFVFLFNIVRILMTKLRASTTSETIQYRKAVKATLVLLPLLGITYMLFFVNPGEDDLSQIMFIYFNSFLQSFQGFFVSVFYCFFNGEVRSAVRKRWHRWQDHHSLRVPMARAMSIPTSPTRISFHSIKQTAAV
T3 sequence (P24387 whole entry): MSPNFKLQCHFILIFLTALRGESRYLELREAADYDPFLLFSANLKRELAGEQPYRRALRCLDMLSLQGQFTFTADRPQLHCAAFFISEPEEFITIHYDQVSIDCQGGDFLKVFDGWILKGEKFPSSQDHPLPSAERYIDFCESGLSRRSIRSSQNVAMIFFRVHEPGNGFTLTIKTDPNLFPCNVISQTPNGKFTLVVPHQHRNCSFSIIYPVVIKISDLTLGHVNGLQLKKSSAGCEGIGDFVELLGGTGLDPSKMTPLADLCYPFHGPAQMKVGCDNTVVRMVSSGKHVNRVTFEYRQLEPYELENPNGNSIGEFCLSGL

[15] = biological target: T3, Corticotropin-releasing factor receptor 2/Corticotropin-releasing factor-binding protein; assay: Dose Response confirmation of uHTS hits for small molecule antagonists of the CRF-binding protein and CRF-R2 receptor complex.; format: functional; conditions: read-out: IC50_Mean
[16] = blockers of CRF-binding protein–CRF-R2 complex – cell-based, uHTS hits, 384-well, dose response (AID 651639); format: functional, Homo sapiens; conditions: read-out: IC50_Mean
Steroidogenic factor 1 = Steroidogenic factor 1 (Homo sapiens, UniProt Q13285); assay: Counterscreen for inverse agonists of the liver receptor homolog-1 (LRH-1; NR5A2): Luminescence-based cell-based high throughput dose response assay to identify inverse agonists of the Steroidogenic Factor 1 Nuclear Receptor (SF1; NR5A1).; format: functional
Steroidogenic factor 1, sequence (Q13285 whole entry): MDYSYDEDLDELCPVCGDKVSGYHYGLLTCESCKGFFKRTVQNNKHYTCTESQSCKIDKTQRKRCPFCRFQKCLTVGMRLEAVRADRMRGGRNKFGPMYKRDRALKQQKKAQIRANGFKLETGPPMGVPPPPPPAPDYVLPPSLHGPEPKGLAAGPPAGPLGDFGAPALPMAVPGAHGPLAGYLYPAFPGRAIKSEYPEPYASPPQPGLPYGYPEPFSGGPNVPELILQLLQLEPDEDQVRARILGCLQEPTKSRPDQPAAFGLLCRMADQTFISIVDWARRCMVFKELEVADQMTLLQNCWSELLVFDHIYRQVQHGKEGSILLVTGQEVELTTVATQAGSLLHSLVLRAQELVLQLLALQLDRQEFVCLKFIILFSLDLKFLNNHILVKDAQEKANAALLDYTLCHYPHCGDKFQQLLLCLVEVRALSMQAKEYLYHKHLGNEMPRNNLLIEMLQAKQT

[17] = biological target: Nuclear receptor subfamily 5 group A member 2 (Homo sapiens, UniProt O00482); format: functional, cell-based;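 further: HEK293T cells transfected with LRH-1 and a StAR promoter luciferase reporter; potency for inhibitors that lower LRH-1 driven reporter light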
Nuclear receptor subfamily 5 group A member 2, sequence (O00482 whole entry): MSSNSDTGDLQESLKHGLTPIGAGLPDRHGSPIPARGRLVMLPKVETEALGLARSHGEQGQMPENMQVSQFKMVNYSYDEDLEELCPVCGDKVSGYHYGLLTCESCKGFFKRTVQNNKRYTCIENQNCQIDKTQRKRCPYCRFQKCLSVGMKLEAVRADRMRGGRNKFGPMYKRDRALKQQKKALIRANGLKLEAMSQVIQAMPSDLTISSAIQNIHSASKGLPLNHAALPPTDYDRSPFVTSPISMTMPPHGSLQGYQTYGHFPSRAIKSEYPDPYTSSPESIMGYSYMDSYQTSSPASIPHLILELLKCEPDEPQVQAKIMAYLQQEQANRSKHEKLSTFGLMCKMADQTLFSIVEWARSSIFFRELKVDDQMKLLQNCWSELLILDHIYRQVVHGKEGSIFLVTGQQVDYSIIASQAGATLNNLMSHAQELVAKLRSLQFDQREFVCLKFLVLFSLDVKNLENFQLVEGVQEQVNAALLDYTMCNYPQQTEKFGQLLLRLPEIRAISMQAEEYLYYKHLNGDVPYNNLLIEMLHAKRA

[18] = nonselective StAR promoter luciferase inhibitors – cell-based, luminescence, luciferase reporter, counter-screen for LRH-1 inverse agonist project, dose response (AID 651969); format: functional
[19] = viability loss in HEK293T cells – cell-based, cherry-picks, cytotoxicity control for HIV Vif inhibitor project, dose response (AID 652208); format: functional
[20] = bead-based luminescence quenchers, dual-tagged ARNT – biochemical, AlphaScreen, cherry-pick, artefact control for ARNT-TACC3 interaction inhibitor project, dose response (AID 651705); format: functional;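 further: AlphaScreen bead proximity signal that flags compounds interfering with the detection technology; potency reflects signal decrease which marks the compound as an assay artifact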
[21] = biological target: T4, Zinc finger protein mex-5 (Caenorhabditis elegans, UniProt Q9XUB2); assay: potency of MEX-5 RNA-binding blockers – biochemical, C. elegans, fluorescence polarization, dose response (AID 1960)
T4 sequence (Q9XUB2 whole entry): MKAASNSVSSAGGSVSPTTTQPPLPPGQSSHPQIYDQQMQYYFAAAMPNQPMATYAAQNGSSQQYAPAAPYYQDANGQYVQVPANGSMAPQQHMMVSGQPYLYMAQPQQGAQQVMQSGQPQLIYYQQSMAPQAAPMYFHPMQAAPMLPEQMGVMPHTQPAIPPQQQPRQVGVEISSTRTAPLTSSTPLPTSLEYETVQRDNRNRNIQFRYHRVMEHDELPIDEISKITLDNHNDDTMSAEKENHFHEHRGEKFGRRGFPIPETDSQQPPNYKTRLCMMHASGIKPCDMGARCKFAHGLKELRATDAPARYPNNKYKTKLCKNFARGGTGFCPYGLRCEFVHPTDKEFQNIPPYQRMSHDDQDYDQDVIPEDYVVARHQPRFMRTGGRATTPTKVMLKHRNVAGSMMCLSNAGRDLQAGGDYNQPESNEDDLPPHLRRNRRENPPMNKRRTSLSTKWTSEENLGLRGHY

[22] = biological target: T5, RNA-binding protein pos-1 (Caenorhabditis elegans, UniProt G5EF15); assay: disruptors of C. elegans POS-1 RNA interaction – biochemical, fluorescence polarization, dose response (AID 1964);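 further: purified POS-1 fused to maltose binding protein made in E. coli; potency of compounds blocking POS-1 binding to fluorescent RNA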
T5 sequence (G5EF15 whole entry): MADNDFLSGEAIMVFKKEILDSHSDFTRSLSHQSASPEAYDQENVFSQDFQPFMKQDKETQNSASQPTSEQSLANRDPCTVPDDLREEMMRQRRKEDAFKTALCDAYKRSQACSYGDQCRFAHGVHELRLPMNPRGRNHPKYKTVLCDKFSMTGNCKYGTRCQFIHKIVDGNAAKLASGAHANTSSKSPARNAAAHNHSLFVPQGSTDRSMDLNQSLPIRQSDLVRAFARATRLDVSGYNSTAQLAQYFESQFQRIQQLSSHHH

[23] = biological target: T6, Hepatocyte nuclear factor 4-alpha (Homo sapiens, UniProt P41235); format: functional, cell-based;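 further: biochemical luminescence-based dose-response counterscreen measuring inhibition of HNF4 dimerization, run alongside a screen for blockers of ABHD5–perilipin-5 interaction; split luciferase complementation of HNF4 fusion proteins in cell lysate measuring dimerization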
T6 sequence (P41235 whole entry): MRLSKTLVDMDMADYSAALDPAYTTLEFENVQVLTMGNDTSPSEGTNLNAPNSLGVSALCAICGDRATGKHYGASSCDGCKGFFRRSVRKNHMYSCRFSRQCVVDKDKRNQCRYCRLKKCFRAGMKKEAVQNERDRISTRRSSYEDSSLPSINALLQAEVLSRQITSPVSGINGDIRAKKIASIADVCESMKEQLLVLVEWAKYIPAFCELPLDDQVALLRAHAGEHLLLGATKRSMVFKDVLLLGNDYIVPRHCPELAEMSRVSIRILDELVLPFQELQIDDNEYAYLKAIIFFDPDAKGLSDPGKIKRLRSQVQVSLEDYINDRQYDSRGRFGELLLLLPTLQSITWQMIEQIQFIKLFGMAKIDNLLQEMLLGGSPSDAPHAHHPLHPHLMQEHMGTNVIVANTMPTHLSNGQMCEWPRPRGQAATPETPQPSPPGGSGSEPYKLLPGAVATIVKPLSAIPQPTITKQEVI

## C[C@H](CO)N1C[C@H](C)[C@H](CN(C)Cc2ccc(C(F)(F)F)cc2)Oc2ccc(NC(=O)Nc3ccccc3)cc2C1=O
[1]
  AC50: > 47 µM (inactive)
[2]
  AC50: > 47 µM (inactive)
[3]
  AC50: 20.2 µM (active)
[4]
  AC50: 7.64 µM (active)
[5]
  AC50: 27.4 µM (active)

## O=C(OCC(=O)c1c[nH]c2ccccc12)c1ccc(OC(F)F)cc1
[6]
  IC50: 83.3 µM (inactive)

## Cn1c(N/N=C/c2c[nH]c3ccccc23)nc2ccccc21
[7]
  EC50: 2.96 µM (active)
[8]
  EC50: > 38 µM (not active)
Cytochrome P450 2C9
  AC50: 28.2 µM (inconclusive)
Cytochrome P450 3A4
  AC50: 20 µM (inconclusive)
[9]
  EC50: 2.81 µM (active)
[10]
  IC50: 44.4 µM (active)
[11]
  EC50: > 150 µM (inactive)
[12]
  AC50: 52.1 µM (active)
[13]
  CC50: 100 µM (active)

## COC(=O)c1sc(-c2ccc(C(C)(C)C)cc2)cc1NC(=O)COCC(=O)O
[14]
  EC50: > 53 µM (inactive)
[15]
  IC50: 11 µM (active)
[16]
  IC50: > 20 µM (inactive)

## COc1ccc(N2/C(=C/C(C)=O)NC(=O)c3c(C)cc(C)nc32)cc1
Steroidogenic factor 1
  IC50: 5.42 µM (active)
[17]
  IC50: 8.47 µM (active)
[18]
  IC50: 35.9 µM (inactive)

## COc1ccc(C=C2CS(=O)(=O)CC(=Cc3ccc(OC)cc3)C2=O)cc1
[19]
  AC50: 4.33 µM (active)

## O=C(NNc1ccccn1)C(=O)NNS(=O)(=O)c1ccc(F)cc1
[20]
  AC50: 122 µM (active)
[21]
  EC50: > 300 µM (inconclusive)
[22]
  EC50: > 300 µM (not active)

## Cc1cccc(C)c1NC(=O)C(c1ccc(C(F)(F)F)cc1)n1c(=O)c(-c2ccco2)nc2ccccc21 (stereo unspecified)
[23]
  IC50: 2.56 µM (active)
